Experimental data taken from patent US5369096A, “Glycolipid derivatives” (The Nisshin Oil Mills, Ltd., priority 1992, dated 1994).

What was measured:
Assay type in all cases: cell-based
[1] = test system: Colo 201 cancer cells adhering to vascular endothelial cells of the normal human umbilical cord; assay: inhibition of adhesion of Colo 201 cancer cells to rhIL1β-stimulated vascular endothelial cells, liposome dispersion; details: 11.8 μM equivalent; for Amount of Colo 201 cells adhered (fluorescence intensity): rhIL1β 200 U/ml, 485 nm
Procedure: A solution of 200 μg of phosphatidylcholine, 100 μg of cholesterol, 7.5 μg of dicetyl phosphate and 50 μg of a compound of the invention in a mixture of chloroform/methanol=2/1 (ca. 1 ml) was evaporated under reduced pressure to dryness followed by addition of 0.25 ml of a phosphate-buffered saline solution. The mixture was ultrasonicated (an output of 90 watts) for 5 min. and stirred (a vortex mixer) for 5 min. to form a liposome dispersion.
% Inhibition of adhesion=100-[(fluorescence intensity for rhIL1β-treated group+compound-free or a compound-containing liposome dispersion-treated group)-(fluorescence intensity for rhIL1β-untreated group)/(fluorescence intensity for rhIL1β-treated group-fluorescence intensity for rhIL1β-untreatedgroup)]×100
Vascular endothelial cells of the normal human umbilical cord grown to confluence were stimulated in 24-well plates with 200 U/ml of rhIL1β at 37° C. for 4 hours. After removal of the supernatant by suction liposome dispersions each prepared from 2→3 sialyl Le^x or a compound of the invention in an amount of 11.8 μM equivalent were added except for the rhIL1β-untreated and treated groups. The mixtures were then allowed to react at room temperature for 30 min. Subsequently, colon carcinoma cell line Colo 201 with 2',7'-bis-(carboxyethyl)-5,6-carboxyfluorescene acetoxymethyl ester fluorescent dye enclosed was added at a level of 1×10^6 cells per well followed by centrifugal operation at 100 rpm for 20 min. Each well was washed three times followed by addition of 0.5 ml of 0.5% Triton X-100 and stirring. The contents were divided into 100 μl portions in 96-well plates and measurement was made on a Baxter fluorometer at 485 nm.
4: rhIL1β-treated group+2→3 sialyl Le^x -containing liposome dispersion-treated group
5: rhIL1β-treated group+compound 5E-containing liposome dispersion-treated group (OEG)*
6: rhIL1β-treated group+compound 5A-containing liposome dispersion-treated group (2EG)
7: rhIL1β-treated group+compound 5B-containing liposome dispersion-treated group (3EG)
8: rhIL1β-treated group+compound 5C-containing liposome dispersion-treated group (4EG)
9: rhIL1β-treated group+compound 5D-containing liposome dispersion-treated group (5EG)
* OEG represents a control compound containing no CH2 CH2 O unit. The same shall apply hereinafter.
Amount adhered and % inhibition of adhesion of Colo 201 cancer cells as measured from fluorescence intensity are shown in Table 2 below.

[2] = test system: HL-60 cancer cells adhering to vascular endothelial cells of the normal human umbilical cord; assay: inhibition of adhesion of HL-60 cancer cells to rhIL1β-stimulated vascular endothelial cells, oily emulsion; details: 20 μg/ml equivalent; for Amount of HL-60 cancer cells adhered (fluorescence intensity): rhIL1β 200 U/ml, 485 nm/535 nm
Procedure: (§1) A mixed solution of 6 mg of egg yolk lecithin (manufactured by Nacalaitesque Inc.), 30 μl of soybean oil J. P. (manufactured by Yoshida Seiyaku), 470 μl of distilled water for injection (manufacturedby Otsuka Seiyaku) and 125 μg of a compound of the invention was ultrasonicated (an output of 90 watts) for 10 min. to prepare an oily emulsion. The oily emulsion was further passed through a polycarbonate membrane filter having 0.2 μm average pore diameter (manufactured by Millipore) to provide an average particle size of 0.2 μm.
Vascular endothelial cells of the normal human umbilical cord grown to confluence were stimulated in 24-well plates with 200 U/ml of rhIL1β at 37° C. for 4 hours. After removal of the supernatant by suction, oily emulsions each prepared from a compound of the invention in an amount of 20 μg/ml equivalent were added except for the rhIL1β-untreated group (sample 1) and the treated groups (samples 2 and 3). The mixtures were then allowed to react at room temperature for 30 min. Subsequently, promyelocytic leukemia cell line HL-60 with 2',7'-bis(carboxyethyl)-5,6-carboxyfluorescene acetoxymethyl ester fluorescent dye enclosed was added at a level of 1×10^6 cells per well followed by centrifugal operation at 100 rpm for 20 min. Each well was washed three times followed by addition of 0.5 ml of 0.5% Triton X-100 and stirring. The contents were divided into 100 μl portions in 96-well plates and measurement was made on a Baxter fluorometer at 485 nm/535 nm.
4: rhIL1β-treated group+2→3 sialyl Lewis X (natural type)-containing oily emulsion dispersion-treated group
5: rhlL1β-treated group+compound 5E-containing oily emulsion dispersion-treated group (OEG)
(§2) 6: rhIL1β-treated group+compound 5A-containing oily emulsion dispersion-treated group (2EG)
(§3) 7: rhIL1β-treated group+compound 5B-containing oily emulsion dispersion-treated group (3EG)
(§4) 8: rhIL1β-treated group+compound 5C-containing oily emulsion dispersion-treated group (4EG)
(§5) 9: rhIL1β-treated group+compound 5D-containing oily emulsion dispersion-treated group (5EG)
% inhibition of adhesion=100-[(fluorescence intensity for rhIL1β-treated group+compound-free or a compound-containing oily emulsion dispersion-treated group)-(fluorescence intensity for rhIL1β-untreated group)/(fluorescence intensity for rhIL1β-treated group-fluorescence intensity for rhIL1β-untreatedgroup)]×100

[3] = test system: human normal lymphocytes adhering to vascular endothelial cells of the normal human umbilical cord; assay: inhibition of adhesion of human normal lymphocytes to rhIL1β-stimulated vascular endothelial cells, oily emulsion; details: 20 μg/ml equivalent; for Amount adhered (fluorescence intensity): rhIL1β 200 U/ml, 485 nm/535 nm
Procedure: as §1
Vascular endothelial cells of the normal human umbilical cord grown to confluence were stimulated in 24-well plates with 200 U/ml of rhIL1ββat 37° C. for 4 hours. After removal of the supernatant by suction, oily emulsions each prepared from a compound of the invention in an amount of 20 μg/ml equivalent were added except for the rhIL1β-untreated (Sample 1) and treated groups (Samples 2 and 3). The mixtures were then allowed to react at room temperature for 30 min. Subsequently, human normal lymphocytes with 2',7'-bis(carboxyethyl)-5,6-carboxyfluorescence acetoxymethyl ester fluorescent dye enclosed was added at a level of 2×10^6 cells per well followed by centrifugal operation at 100 rpm for 20 min. Each well was washed three times followed by addition of 0.5 ml of 0.5% Triton X-100 and stirring. The contents were divided into 100 μl portions in 96-well plates and measurement was made on a Baxter fluorometer at 485 nm/535 nm.
4: rhIL1β-treated group+2→3 sialyl Lewis X-containing oily emulsion dispersion-treated group
5: rhIL1β-treated group+compound 5E-containing oily emulsion dispersion-treated group (OEG)
as §2, §3, §4, §5
Amount adhered and percent inhibition of adhesion of human normal lymphocytes as measured from fluorescence intensity are shown in Table 5 below.

SMILES	Amount of Colo 201 cells adhered (fluorescence intensity) [1]	% Inhibition of adhesion ([1]; Colo 201 cells)	Amount of HL-60 cancer cells adhered (fluorescence intensity) [2]	% Inhibition of adhesion ([2]; HL-60 cells)	% Inhibition of adhesion [3]	Amount adhered (fluorescence intensity) [3]
CCCCCCCCCCCCCCC(CCCCCCCCCCCCCC)C(=O)Nc1ccc(COCCOCCO[C@@H]2O[C@H](CO)[C@@H](O[C@@H]3O[C@H](CO)[C@H](O)[C@H](O[C@]4(C(=O)O)C[C@H](O)[C@@H](NC(C)=O)[C@H]([C@H](O)[C@H](O)CO)O4)[C@H]3O)[C@H](O[C@@H]3O[C@@H](C)[C@@H](O)[C@@H](O)[C@@H]3O)[C@H]2O)cc1 [Compound 5A, O-(5-acetamido-3,5-dideoxy-D-glycero-α-D-galacto-2-nonulopyranosylonic acid)-(2→3)-O-β-D-galactopyranosyl-(1→4)-[O-α-L-fucopyranosyl-(1→3)-O-β-D-glucopyranosyl]-(1→1)-5-O-para-(2-tetradecylhexadecanoyl)aminobenzyl-3-oxapentane-1,5-diol]	246293	66.69%	13287	65.3%	65.8%	9773
CCCCCCCCCCCCCCC(CCCCCCCCCCCCCC)C(=O)Nc1ccc(COCCOCCOCCOCCOCCO[C@@H]2O[C@H](CO)[C@@H](O[C@@H]3O[C@H](CO)[C@H](O)[C@H](O[C@]4(C(=O)O)C[C@H](O)[C@@H](NC(C)=O)[C@H]([C@H](O)[C@H](O)CO)O4)[C@H]3O)[C@H](O[C@@H]3O[C@@H](C)[C@@H](O)[C@@H](O)[C@@H]3O)[C@H]2O)cc1 [Compound 5D, O-(5-acetamido-3,5-dideoxy-D-glycero-α-D-galacto-2-nonulopyranosylonic acid)-(2→3)-O-β-D-galactopyranosyl-(1→4)-[O-α-L-fucopyranosyl-(1→3)-O-β-D-glucopyranosyl]-(1→1)-5-O-para-(2-tetradecylhexadecanoyl)aminobenzyl-3,6,9,12-tetraoxatetradecane-1,14-diol]	240554	–	2782	–	–	10324
CCCCCCCCCCCCCCC(CCCCCCCCCCCCCC)C(=O)Nc1ccc(COCCOCCOCCOCCO[C@@H]2O[C@H](CO)[C@@H](O[C@@H]3O[C@H](CO)[C@H](O)[C@H](O[C@]4(C(=O)O)C[C@H](O)[C@@H](NC(C)=O)[C@H]([C@H](O)[C@H](O)CO)O4)[C@H]3O)[C@H](O[C@@H]3O[C@@H](C)[C@@H](O)[C@@H](O)[C@@H]3O)[C@H]2O)cc1 [Compound 5C, O-(5-acetamido-3,5-dideoxy-D-glycero-α-D-galacto-2-nonulopyranosylonic acid)-(2→3)-O-β-D-galactopyranosyl-(1→4)-[O-α-L-fucopyranosyl-(1→3)-O-β-D-glucopyranosyl]-(1→1)-11-O-para-(2-tetradecylhexadecanoyl)aminobenzyl-3,6,9-trioxaundecane-1,11-diol]	240330	–	6762	–	–	13563
CCCCCCCCCCCCCCC(CCCCCCCCCCCCCC)C(=O)Nc1ccc(COCCOCCOCCO[C@@H]2O[C@H](CO)[C@@H](O[C@@H]3O[C@H](CO)[C@H](O)[C@H](O[C@]4(C(=O)O)C[C@H](O)[C@@H](NC(C)=O)[C@H]([C@H](O)[C@H](O)CO)O4)[C@H]3O)[C@H](O[C@@H]3O[C@@H](C)[C@@H](O)[C@@H](O)[C@@H]3O)[C@H]2O)cc1 [Compound 5B, O-(5-acetamido-3,5-dideoxy-D-glycero-α-D-galacto-2-nonulopyranosylonic acid)-(2→3)-O-β-D-galactopyranosyl-(1→4)-[O-α-L-fucopyranosyl-(1→3)-O-β-D-glucopyranosyl]-(1→1)-8-O-para-(2-tetradecylhexadecanoyl)aminobenzyl-3,6-dioxaoctane-1,8-diol]	212789	–	6439	–	–	10045
